Laboratory results published in patent publication US20250161201A1, “COSMETIC COMPOSITION” (THE BOOTS COMPANY PLC, priority 2022, published 2025).

Key:
[1] = tested on: normal human epidermal keratinocytes (NHEK); assay: Preliminary cytotoxicity assay (WST-8) in keratinocytes; type: cell-based; conditions: 24 hours treatment, WST-8, ingredient on its own
Method: Normal human epidermal keratinocytes (NHEK) were seeded in 24-well plates and placed in culture medium (Keratinocyte-serum free media (SFM) supplemented with Epidermal Growth Factor at concentration 0.025 ug/ml and Pituitary extract at concentration of 0.05 mg/ml) for 24 hours. To determine suitable non-toxic ingredient concentrations, a cytotoxicity assay was first carried out where the NHEKs were treated with ingredients or ingredient blends for 24 hours before being incubated with WST-8 (highly water-soluble tetrazolium salt) which is reduced to a water-soluble orange coloured product (formazan) by viable, living cells and is quantified by optical density measurement at 450 nm using a spectrophotometer (VERSAmax, Molecular Devices). This reduction is proportional to the number of living cells and their metabolic activity

[2] = tested on: Interleukin-8 (IL-8) mRNA; assay: IL-8 mRNA expression by RT-qPCR in NHEK; type: cell-based, human; conditions: 24 hours, used on its own, vs media only control
Method: Interleukin 8 is a measurable biomarker for inflammation. The effectiveness of the presently described compositions in reducing inflammation, and promoting skin barrier repair, are assessed by measuring the reduction in the expression of Interleukin-8 (IL-8) in the skin cells tested. Over expression of IL-8 in the epidermis can lead to disruption of epidermal homeostasis i.e. disruption of the skin cell differentiation, proliferation and desquamation processes.
In the present experiment, the effects of compounds were assessed in normal human epidermal keratinocytes (NHEK). More specifically, the effects of these compounds were evaluated using real time polymerase chain reaction (RT-qPCR) technology. […]
IL-8 mRNA expression was analysed using RT-qPCR as part of this array. […] The amount and quality of mRNA was evaluated using capillary electrophoresis with a Bioanalyzer 2100 (Agilent technologies). […] The cDNA quantities were then diluted if necessary, to achieve equal amount of cDNA concentration in each test sample, before carrying out PCR (Polymerase Chain Reaction) using the LightCycler (trade name) system (commercially available from Roche Molecular System Inc.) according to the supplier's instructions. […] The more copies of DNA/cDNA that have been produced through PCR, the more SYBR Green molecules will bind the DNA/cDNA and the higher the level of fluorescence. […]

## NC(=O)c1cccnc1 [Niacinamide, niacinamide]
[1]
  maximum concentration usable without causing a loss in viability or death of the epidermal keratinocytes: 500 ppm
[2]
  increase of IL-8 mRNA expression: 18%
